Experimental data reported in ChEMBL document CHEMBL1152171 (Bioorg Med Chem Lett, 2008).

target: Synaptic vesicular amine transporter (Rattus norvegicus, UniProt Q01827); assay: Displacement of [3H]dihydrotetrabenazine from vesicular monoamine transporter-2 in rat brain synaptosome; assay type: tissue-based
Sequence (Q01827 whole entry): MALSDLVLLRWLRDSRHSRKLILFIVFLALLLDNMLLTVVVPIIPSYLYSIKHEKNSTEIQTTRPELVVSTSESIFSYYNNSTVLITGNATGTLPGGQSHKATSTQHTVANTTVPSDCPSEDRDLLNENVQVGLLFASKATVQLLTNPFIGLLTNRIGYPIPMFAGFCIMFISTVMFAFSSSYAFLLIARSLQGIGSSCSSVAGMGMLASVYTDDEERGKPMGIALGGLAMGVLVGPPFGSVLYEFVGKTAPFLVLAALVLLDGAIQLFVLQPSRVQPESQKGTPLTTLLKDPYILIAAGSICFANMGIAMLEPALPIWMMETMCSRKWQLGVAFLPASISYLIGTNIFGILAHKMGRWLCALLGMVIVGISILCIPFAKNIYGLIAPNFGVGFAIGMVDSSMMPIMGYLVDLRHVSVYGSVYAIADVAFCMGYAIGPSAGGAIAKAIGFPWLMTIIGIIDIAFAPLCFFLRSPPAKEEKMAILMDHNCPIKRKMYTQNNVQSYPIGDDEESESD

Row | Structure (SMILES) | Ki
1 | c1ccc(C[C@H]2CCC[C@@H](c3ccccc3)N2)cc1 | 24.1 µM
2 | CN1[C@H](CCCc2ccccc2)CCC[C@@H]1CCCc1ccccc1 | 1 µM
3 | c1ccc(CCC[C@H]2CCC[C@@H](Cc3ccccc3)N2)cc1 | 1.13 µM
4 | CN1[C@@H](Cc2ccccc2)CCC[C@H]1Cc1ccccc1 | 10.5 µM
5 | CN1[C@@H](CCc2ccccc2)CCC[C@H]1Cc1ccccc1 | 2.77 µM
6 | CN1[C@@H](CCCc2ccccc2)CCC[C@H]1c1ccccc1 | 62.5 µM
7 | CN1[C@@H](Cc2ccccc2)CCC[C@H]1c1ccccc1 | 13.6 µM
8 | c1ccc(CCC[C@H]2CCC[C@@H](c3ccccc3)N2)cc1 | 28.6 µM
9 | c1ccc(CC[C@H]2CCC[C@@H](Cc3ccccc3)N2)cc1 | 12.2 µM
10 | CN1[C@@H](c2ccccc2)CCC[C@H]1c1ccccc1 | > 100 µM
11 | c1ccc(CCC[C@H]2CCC[C@@H](CCc3ccccc3)N2)cc1 | 4.6 µM
12 | CN1[C@@H](CCCc2ccccc2)CCC[C@H]1CCc1ccccc1 | 0.88 µM
13 | c1ccc(CC[C@H]2CCC[C@@H](c3ccccc3)N2)cc1 | 28.4 µM
14 | CN1[C@@H](CCCc2ccccc2)CCC[C@H]1Cc1ccccc1 | 1.62 µM
15 | c1ccc(C[C@H]2CCC[C@@H](Cc3ccccc3)N2)cc1 | 7.68 µM
16 | c1ccc(CCC[C@@H]2CCC[C@H](CCCc3ccccc3)N2)cc1 | 4.56 µM
